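Cultured in 96-well plates, cells were exposed to test compound for 48 hours across five concentrations. Here, GI50 denotes the concentration required for 50% inhibition of growth.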 Calls of active or inactive are those of the source. Cut-off read from the data, not from the text of the source: active = GI50 up to about 1.1 µM and inactive = higher.
How the values were obtained:
Assay in all cases: inhibition of tumour cell growth, NCI panel, 48 h
NCI/ADR-RES = system: NCI/ADR-RES
KM12 = system: KM12
OVCAR-4 = system: OVCAR-4
OVCAR-3 = system: OVCAR-3
MDA-MB-231 = system: MDA-MB-231
NCI-H522 = system: NCI-H522
SR = system: SR
U-251 = system: U-251
HCC 2998 = system: HCC 2998
RPMI-8226 = system: RPMI-8226
SNB-19 = system: SNB-19
UO-31 = system: UO-31
EKVX = system: EKVX
COLO 205 = system: COLO 205
HCT-116 = system: HCT-116
MCF7 = system: MCF7
ACHN = system: ACHN
HOP-92 = system: HOP-92
NCI-H226 = system: NCI-H226
CCRF-CEM = system: CCRF-CEM

Measured: GI50

CCCCn1c(C)c(C)c2c1NN=C(C#N)S2(=O)=O
inactive: NCI/ADR-RES > 100 µM | KM12 > 100 µM | OVCAR-4 > 100 µM | OVCAR-3 > 100 µM | MDA-MB-231 > 100 µM | NCI-H522 64.7 µM | SR 75 µM | U-251 > 100 µM | HCC 2998 > 100 µM | RPMI-8226 > 100 µM | SNB-19 > 100 µM | UO-31 > 100 µM | EKVX > 100 µM | COLO 205 > 100 µM | HCT-116 > 100 µM | MCF7 > 100 µM | ACHN > 100 µM

COc1cc(C(=O)N(C(=O)N2CCCCC2)c2ccccc2)cc(OC)c1OC
inactive: HOP-92 > 100 µM | NCI/ADR-RES > 100 µM | KM12 > 100 µM | OVCAR-3 > 100 µM | MDA-MB-231 > 100 µM | SR > 100 µM | U-251 > 100 µM | HCC 2998 > 100 µM | RPMI-8226 89.1 µM | SNB-19 > 100 µM | UO-31 > 100 µM | NCI-H226 > 100 µM | EKVX > 100 µM | COLO 205 > 100 µM | CCRF-CEM > 100 µM | HCT-116 > 100 µM | MCF7 > 100 µM | ACHN > 100 µM

O=C(O)/C=C\C(=O)Nn1c(Cc2ccc(Cl)cc2)n[nH]c1=O
inactive: NCI/ADR-RES > 100 µM | OVCAR-4 > 100 µM | OVCAR-3 > 100 µM | MDA-MB-231 > 100 µM | NCI-H522 > 100 µM | SR > 100 µM | U-251 > 100 µM | HCC 2998 > 100 µM | NCI-H226 > 100 µM | EKVX > 100 µM | COLO 205 > 100 µM | CCRF-CEM > 100 µM | HCT-116 > 100 µM | MCF7 > 100 µM

CSCCCS/C1=C/CCCCCCCCCC1
inactive: HOP-92 > 100 µM | NCI/ADR-RES > 100 µM | KM12 > 100 µM | OVCAR-4 > 100 µM | OVCAR-3 > 100 µM | MDA-MB-231 > 100 µM | SR > 100 µM | U-251 > 100 µM | HCC 2998 > 100 µM | RPMI-8226 > 100 µM | SNB-19 > 100 µM | UO-31 > 100 µM | NCI-H226 > 100 µM | EKVX > 100 µM | COLO 205 > 100 µM | HCT-116 > 100 µM | MCF7 > 100 µM | ACHN > 100 µM

CNc1ccc(Cl)cc1S(=O)(=O)c1ccccc1[N+](=O)[O-]
inactive: NCI/ADR-RES > 100 µM | OVCAR-4 99.3 µM | OVCAR-3 > 100 µM | MDA-MB-231 > 100 µM | NCI-H522 > 100 µM | SR > 100 µM | U-251 > 100 µM | HCC 2998 > 100 µM | RPMI-8226 > 100 µM | SNB-19 > 100 µM | UO-31 > 100 µM | NCI-H226 > 100 µM | EKVX > 100 µM | COLO 205 > 100 µM | CCRF-CEM > 100 µM | HCT-116 > 10 µM | MCF7 > 100 µM | ACHN > 100 µM

Cc1ccc(C)n1-n1c(Cc2ccc(Cl)cc2)n[nH]c1=O
inactive: NCI/ADR-RES 40.8 µM | KM12 46 µM | OVCAR-4 > 100 µM | OVCAR-3 54.5 µM | MDA-MB-231 > 100 µM | NCI-H522 20.9 µM | SR 33.2 µM | U-251 77.6 µM | RPMI-8226 33.3 µM | SNB-19 > 100 µM | UO-31 58.7 µM | NCI-H226 84.7 µM | EKVX 69.5 µM | COLO 205 83.6 µM | CCRF-CEM 36.6 µM | HCT-116 53.3 µM | MCF7 90.4 µM | ACHN > 100 µM

COc1ccc(C2N(c3ccc(C)c(N=C=O)c3)C(=O)N3C(c4ccc(OC)cc4)N(c4ccc(C)c(N=C=O)c4)C(=O)N23)cc1 (configuration not stated)
inactive: HOP-92 83.2 µM | NCI/ADR-RES > 100 µM | KM12 > 100 µM | OVCAR-4 > 100 µM | OVCAR-3 > 100 µM | MDA-MB-231 > 100 µM | SR > 100 µM | U-251 > 100 µM | HCC 2998 > 100 µM | RPMI-8226 > 100 µM | SNB-19 > 100 µM | UO-31 > 100 µM | NCI-H226 > 100 µM | EKVX > 100 µM | COLO 205 62.4 µM | CCRF-CEM > 100 µM | HCT-116 > 100 µM | MCF7 > 100 µM | ACHN > 100 µM

CCCC(=O)N/S(=N/S(=O)(=O)c1ccc(Cl)cc1)C(Cl)(Cl)Cl (configuration not stated)
inactive: NCI/ADR-RES > 100 µM | KM12 > 100 µM | OVCAR-3 > 100 µM | MDA-MB-231 > 100 µM | SR > 100 µM | U-251 47.9 µM | HCC 2998 > 100 µM | SNB-19 > 100 µM | UO-31 > 100 µM | NCI-H226 > 100 µM | EKVX > 100 µM | CCRF-CEM > 100 µM | HCT-116 > 100 µM | MCF7 > 100 µM | ACHN > 100 µM
